Experimental data: US20230203041A1, “ANTAGONISTS OF THE ADENOSINE A2A RECEPTOR” (AdoRx Therapeutics Limited, priority 2020, published 2023)
Structures can show the parent of a compound that is named as a salt.

Legend:
[1] = target: T1, human Adenosine A2a receptor (Homo sapiens, UniProt P29274); experiment: Adenosine receptor TR-FRET binding assay (CA200645 displacement), A2a; conditions: 100 nM CA200645, CHO cell membranes, 2 hours at room temperature
T1 construct: expressed in transfected cells; host or cells: CHO cell membranes
T1 sequence (P29274 whole entry): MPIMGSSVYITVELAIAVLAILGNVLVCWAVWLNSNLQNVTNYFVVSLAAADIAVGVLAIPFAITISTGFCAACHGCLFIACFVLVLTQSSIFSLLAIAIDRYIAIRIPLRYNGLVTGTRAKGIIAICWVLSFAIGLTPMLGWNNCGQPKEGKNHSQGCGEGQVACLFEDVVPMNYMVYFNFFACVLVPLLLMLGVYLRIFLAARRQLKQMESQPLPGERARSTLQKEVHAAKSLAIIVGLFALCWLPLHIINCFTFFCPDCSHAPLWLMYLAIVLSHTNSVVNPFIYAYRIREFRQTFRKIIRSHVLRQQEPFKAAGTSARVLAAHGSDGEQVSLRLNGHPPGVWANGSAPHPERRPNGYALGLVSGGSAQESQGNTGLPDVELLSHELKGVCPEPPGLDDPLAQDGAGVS
Procedure: All FRET binding experiments were conducted at room temperature in white 384-well plates, in assay binding buffer containing 1×LabMed (Cisbio, France), 100 μg/mL saponin, 1% DMSO and 0.02% pluronic acid. Binding of the fluorescently labelled Adenosine receptor antagonist XAC (CA200645, FRET acceptor) to terbium-labelled A1, A2a, A2b and A3 adenosine receptors (FRET donors) was detected by time-resolved FRET due to the close proximity of the donor and acceptor in a binding event. To investigate the ability of unlabelled test compounds to bind to Adenosine A1, A2a, A2b and A3 receptors, dose response curves were constructed that determined the ability of a range of concentrations to inhibit the binding of 30 nM CA200645 to the A2b receptor and 100 nM CA200645 to the A1, A2a, and A3 receptor.
Serial dilution (1:3 dilutions) of test compounds in neat DMSO and transfer of a 400 nL sample of test compound into the assay plate was carried out using the Mosquito (TTP Labtech, UK). The compound samples were incubated for 2 hours at room temperature with a fixed concentration of CA200645 defined for each receptor (see above) and CHO cell membranes containing the human Adenosine A1 (0.5 μg/well), A2a (0.3 μg/well), A2b (1 μg/well) or A3 (1 μg/well) receptor in 40 μL of assay buffer. Total and non-specific binding of CA200645 was determined in the absence and presence of 10 μM XAC, respectively. Following 2 hours incubation, the level of CA200645 binding was detected on a Pherastar FSX (BMG Labtech, Germany) using standard TR-FRET settings. The terbium donor was excited with three laser flashes at a wavelength of 337 nm, and donor and acceptor emission was detected at 620 nm and 665 nm wavelengths, respectively. FRET ratios were obtained by multiplying the acceptor/donor ratio value by 10,000. Specific binding was determined by subtracting the non-specific binding FRET ratio from the total binding FRET ratio. Compound IC50 curves were analysed using GraphPad Prism 7.0 (GraphPad, USA) and Ki affinity values were determined from the obtained IC50 values using the method of Cheng and Prusoff.

[2] = target: T2, human Adenosine A2b receptor (Homo sapiens, UniProt P29275); experiment: Adenosine receptor TR-FRET binding assay (CA200645 displacement), A2b; conditions: 30 nM CA200645, CHO cell membranes, 2 hours at room temperature
T2 construct: expressed in transfected cells; host or cells: CHO cell membranes
T2 sequence (P29275 1-332): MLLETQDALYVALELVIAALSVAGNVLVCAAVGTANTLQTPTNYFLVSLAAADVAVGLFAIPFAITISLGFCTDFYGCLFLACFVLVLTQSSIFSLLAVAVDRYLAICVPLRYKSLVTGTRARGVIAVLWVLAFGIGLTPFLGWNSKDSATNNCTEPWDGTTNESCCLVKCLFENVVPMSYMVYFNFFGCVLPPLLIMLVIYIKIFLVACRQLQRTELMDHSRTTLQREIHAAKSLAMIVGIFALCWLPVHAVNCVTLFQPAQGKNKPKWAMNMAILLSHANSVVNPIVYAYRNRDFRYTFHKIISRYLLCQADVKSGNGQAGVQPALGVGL

[3] = target: T3, human Adenosine A3 receptor (Homo sapiens, UniProt P0DMS8); experiment: Adenosine receptor TR-FRET binding assay (CA200645 displacement), A3
T3 sequence (P0DMS8 1-318): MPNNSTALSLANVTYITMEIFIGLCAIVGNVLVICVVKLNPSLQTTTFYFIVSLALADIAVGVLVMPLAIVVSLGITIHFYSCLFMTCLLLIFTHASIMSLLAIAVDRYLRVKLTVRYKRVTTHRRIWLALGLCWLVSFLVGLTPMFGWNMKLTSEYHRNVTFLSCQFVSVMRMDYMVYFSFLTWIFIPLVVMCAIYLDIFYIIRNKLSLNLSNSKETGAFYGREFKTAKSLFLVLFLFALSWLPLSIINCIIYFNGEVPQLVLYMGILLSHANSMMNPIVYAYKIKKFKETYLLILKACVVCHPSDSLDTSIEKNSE

[4] = target: T4, human Adenosine A1 receptor (Homo sapiens, UniProt P30542); experiment: Adenosine receptor TR-FRET binding assay (CA200645 displacement), A1
T4 sequence (P30542 1-326): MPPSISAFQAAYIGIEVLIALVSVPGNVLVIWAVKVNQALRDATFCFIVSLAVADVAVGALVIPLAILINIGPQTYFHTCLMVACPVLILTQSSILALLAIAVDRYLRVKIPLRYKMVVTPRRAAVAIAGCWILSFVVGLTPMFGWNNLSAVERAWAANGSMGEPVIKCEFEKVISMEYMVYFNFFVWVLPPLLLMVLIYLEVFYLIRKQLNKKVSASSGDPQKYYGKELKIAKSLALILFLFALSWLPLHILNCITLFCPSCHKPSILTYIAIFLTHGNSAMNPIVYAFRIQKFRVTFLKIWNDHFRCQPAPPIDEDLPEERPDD

SMILES | Ki [1] | Ki [2] | Ki [3] | Ki [4]
CCn1nccc1-c1c(-c2cccc(C#N)c2)nn2ccc(C(=O)NCC(C)(C)O)nc12 [Example 12, 2-(3-Cyanophenyl)-3-(2-ethylpyrazol-3-yl)-N-(2-hydroxy-2-methyl-propyl)pyrazolo[1,5-a]pyrimidine-5-carboxamide] | 145 nM | 240 nM | > 1000 nM | –
Fc1cccc(-c2nn3ccc(NCc4ccccc4)nc3c2Br)c1 [Example 69, N-Benzyl-3-bromo-2-(3-fluorophenyl)pyrazolo[1,5-a]pyrimidin-5-amine] | 141 nM | 10000 nM | > 1000 nM | –
Cc1cc(-c2c(-c3cccc(C#N)c3)nn3ccc(C(=O)O)nc23)cc(Cl)n1 [Example 9, 3-(2-Chloro-6-methyl-4-pyridyl)-2-(3-cyanophenyl)pyrazolo[1,5-a]pyrimidine-5-carboxylic acid] | 94 nM | 426 nM | > 1000 nM | –
Fc1ccccc1-c1cc2nc(NCc3ccccc3)ccn2n1 [Example 36, N-Benzyl-2-(2-fluorophenyl)pyrazolo[1,5-a]pyrimidin-5-amine] | 175 nM | 1780 nM | > 1000 nM | –
Cc1cccnc1CN1CCN(c2ccn3nc(-c4cccc(C#N)c4)c(C#N)c3n2)CC1 [Example 59, 2-(3-Cyanophenyl)-5-[4-[(3-methyl-2-pyridyl)methyl]piperazin-1-yl]pyrazolo[1,5-a]pyrimidine-3-carbonitrile] | 17.5 nM | – | 3680 nM | 1030 nM
C[C@@H]1CN(c2ccn3nc(-c4ccco4)c(C#N)c3n2)CCN1 [Example 82, 2-(2-Furyl)-5-[(3R)-3-methylpiperazin-1-yl]pyrazolo[1,5-a]pyrimidine-3-carbonitrile hydrochloride] | 665 nM | – | > 1000 nM | 4330 nM
COC(=O)/C=C/c1c(-c2ccco2)nn2ccc(NCc3ccccc3)nc12 [Example 54, Methyl (E)-3-[5-(benzylamino)-2-(2-furyl)pyrazolo[1,5-a]pyrimidin-3-yl]prop-2-enoate] | 34.7 nM | – | 68 nM | 18 nM
N#Cc1c(-c2ccc(F)cc2)nn2ccc(NCc3ccccc3)nc12 [Example 63, 5-(Benzylamino)-2-(4-fluorophenyl)pyrazolo[1,5-a]pyrimidine-3-carbonitrile] | 49.1 nM | – | 65 nM | 24 nM
N#Cc1c(-c2cccc(F)c2)nn2ccc(N3CCN(CCF)CC3)nc12 [Example 61, 5-[4-(2-Fluoroethyl)piperazin-1-yl]-2-(3-fluorophenyl)pyrazolo[1,5-a]pyrimidine-3-carbonitrile] | 37.9 nM | – | 4920 nM | 42 nM
N#Cc1c(-c2ccco2)nn2ccc(N3CCN(c4ccccc4)CC3)nc12 [Example 55, 2-(2-Furyl)-5-(4-phenylpiperazin-1-yl)pyrazolo[1,5-a]pyrimidine-3-carbonitrile] | 43.1 nM | 2370 nM | > 1000 nM | –
c1ccc(CNc2ncn3nc(-c4ccco4)cc3n2)cc1 [Example 84, N-Benzyl-7-(2-furyl)pyrazolo[1,5-a][1,3,5]triazin-2-amine] | 160 nM | – | 231 nM | 389 nM
NC(=O)c1c(-c2ccco2)nn2ccc(N3CCN(CCF)CC3)nc12 [Example 39, 5-[4-(2-Fluoroethyl)piperazin-1-yl]-2-(2-furyl)pyrazolo[1,5-a]pyrimidine-3-carboxamide] | 38.9 nM | – | > 1000 nM | 2580 nM

Continued, values first:

Ki [1] | Ki [2] | Ki [3] | Ki [4] | SMILES
12.5 nM | 25 nM | > 1000 nM | – | Cc1cc(-c2c(-c3cccc(C#N)c3)nn3ccc(O[C@H]4CCNC4)nc23)cc(Cl)n1 [Example 24.2, 3-[3-(2-Chloro-6-methyl-4-pyridyl)-5-[(3S)-pyrrolidin-3-yl]oxy-pyrazolo[1,5-a]pyrimidin-2-yl]benzonitrile]
14.9 nM | 12 nM | > 1000 nM | – | Cc1cc(-c2c(-c3cccc(C#N)c3)nn3ccc(C(=O)N[C@@H]4CCCNC4)nc23)cc(Cl)n1 [Example 7.7, 3-(2-Chloro-6-methyl-4-pyridyl)-2-(3-cyanophenyl)-N-[(3R)-3-piperidyl]pyrazolo[1,5-a]pyrimidine-5-carboxamide]
284 nM | 2160 nM | 25 nM | – | Fc1cccc(-c2cc3nc(NCCc4ccccc4)ccn3n2)c1 [Example 66.2, 2-(3-Fluorophenyl)-N-(2-phenylethyl)pyrazolo[1,5-a]pyrimidin-5-amine]
– | 2310 nM | > 1000 nM | – | CCn1ncc(C)c1-c1c(-c2cccc(C#N)c2)nn2ccc(C(=O)NCC(C)(C)O)nc12 [Example 12.3, 2-(3-Cyanophenyl)-3-(2-ethyl-4-methyl-pyrazol-3-yl)-N-(2-hydroxy-2-methyl-propyl)pyrazolo[1,5-a]pyrimidine-5-carboxamide]
50.8 nM | 91 nM | > 1000 nM | – | Cc1cc(-c2c(-c3cccc(C#N)c3)nn3ccc(O[C@H]4CCCNC4)nc23)cc(Cl)n1 [Example 24.3, 3-[3-(2-Chloro-6-methyl-4-pyridyl)-5-[[(3S)-3-piperidyl]oxy]pyrazolo[1,5-a]pyrimidin-2-yl]benzonitrile]
19.2 nM | – | 1930 nM | 103 nM | CC(C)(C)OC(=O)N1CCC[C@@H]1CNc1ccn2nc(-c3ccco3)c(C#N)c2n1 [Example 37.2, tert-butyl (2R)-2-[[[3-cyano-2-(2-furyl)pyrazolo[1,5-a]pyrimidin-5-yl]amino]methyl]pyrrolidine-1-carboxylate]
102 nM | – | 6180 nM | 856 nM | O=C(O)/C=C/c1c(-c2ccco2)nn2ccc(NCc3ccccc3)nc12 [Example 54.1, (E)-3-[5-(Benzylamino)-2-(2-furyl)pyrazolo[1,5-a]pyrimidin-3-yl]prop-2-enoic acid]
10.1 nM | 29 nM | > 1000 nM | – | Cc1cc(-c2c(-c3cccc(C#N)c3)nn3ccc(N[C@@H](C)CO)nc23)cc(Cl)n1 [Example 23.3]
22.5 nM | 212 nM | 2000 nM | – | Cc1cc(-c2c(-c3cccc(C#N)c3)nn3ccc(N4CCOCC4)nc23)cc(Cl)n1 [Example 2.33]
– | 1570 nM | – | – | CCn1nc(C)cc1-c1c(-c2cccc(C#N)c2)nn2ccc(C(=O)NCC(C)(C)O)nc12 [Example 12.1, 2-(3-Cyanophenyl)-3-(2-ethyl-5-methyl-pyrazol-3-yl)-N-(2-hydroxy-2-methyl-propyl)pyrazolo[1,5-a]pyrimidine-5-carboxamide]
49.3 nM | – | 7850 nM | 154 nM | N#Cc1c(-c2ccco2)nn2ccc(N3CCN(Cc4ccccn4)CC3)nc12 [Example 37.7]
4.1 nM | 119 nM | > 1000 nM | – | Cc1cc(-c2c(-c3cccc(C#N)c3)nn3ccc(C(=O)N[C@H]4CCCNC4)nc23)cc(Cl)n1 [Example 7.4, 3-(2-Chloro-6-methyl-4-pyridyl)-2-(3-cyanophenyl)-N-[(3S)-3-piperidyl]pyrazolo[1,5-a]pyrimidine-5-carboxamide]
127 nM | – | > 1000 nM | 1340 nM | CN(C)C1CN(c2ccn3nc(-c4ccco4)c(C(N)=O)c3n2)C1 [Example 39.1, 5-[3-(Dimethylamino)azetidin-1-yl]-2-(2-furyl)pyrazolo[1,5-a]pyrimidine-3-carboxamide]
72 nM | 1200 nM | > 1000 nM | – | Cc1cccnc1CNc1ccn2nc(-c3cccc(F)c3)cc2n1 [Example 66.1, 2-(3-Fluorophenyl)-N-[(3-methyl-2-pyridyl)methyl]pyrazolo[1,5-a]pyrimidin-5-amine]
62.4 nM | – | > 1000 nM | 426 nM | CN1CCN(c2ccn3nc(-c4ccco4)c(C#N)c3n2)CC1 [Example 37.8]
45.4 nM | – | > 1000 nM | 363 nM | N#Cc1c(-c2ccco2)nn2ccc(N3CCN(CCc4ccccc4)CC3)nc12 [Example 37.6]
54.9 nM | – | > 1000 nM | 104 nM | Cn1ccnc1CN1CCN(c2ccn3nc(-c4ccco4)c(C#N)c3n2)CC1 [Example 51.2, 2-(2-Furyl)-5-[4-[(1-methylimidazol-2-yl)methyl]piperazin-1-yl]pyrazolo [1,5-a]pyrimidine-3-carbonitrile]
